Tests used:
human LAT1 = molecular target: T1, human LAT1 (Homo sapiens, UniProt Q01650); assay: Inhibition of amino acid uptake in human LAT1 stably expressing cell line; type: cell-based
T1 construct: expressed in transfected cells
From the text: (§1) A human LAT1 expression vector or a human LAT2 expression vector was transfected using Lipofectamine (registered trademark) 2000 (Invitrogen) into a human embryonic kidney cell line HEK293. G418-resistant HEK293 clones were selected, and among them, a clone showing human LAT1-specific amino acid uptake and a clone showing human LAT2-specific amino acid uptake were selected and established as a human LAT1 stably expressing cell line and a human LAT2 stably expressing cell line, respectively (Khunweeraphong et al. J Pharmacol Sci. 2012 Aug. 18; 119(4): 368-80. Epub 2012 Jul. 31).
(§2) The human LAT1 stably expressing cell line and the human LAT2 stably expressing cell line were seeded at 1.2×10^5 cells/well on separate collagen-coated 24-well plates, and after 48 hours, the cells were washed 3 times with an uptake buffer (Na^2+-free Hank's balanced salt solution (HBSS), pH 7.4) prewarmed at 37° C. Compound 10a, compound 10b or a positive control FAMT (fluoro-α-methyltyrosine) was added at 100 μM, and incubation was performed at 37° C. for 3 minutes. Cells not treated with any of these compounds were used as a negative control. After the incubation, 1 μM of [^14C]L-leucine or [^14C]alanine was added to the wells, [^14C]L-leucine or [^14C]alanine uptake was allowed to proceed for 1 minute, and the cells were washed 3 times with an ice-cold uptake buffer. Subsequently, 500 μL of 0.1 M NaOH was added to each well for cell lysis, 20 μL of the lysate was used for the measurement of the protein concentration, and the remaining lysate was used for the measurement of the intracellular radioactivity. The measured radioactivity was normalized to the protein concentration, and on the assumption that the amino acid uptake activity in the negative control was 100%, the percentage (%) of inhibition of amino acid uptake in the presence of each compound was calculated.
(§3) Using the same cell lines as described in Example 2, the compound of Example 1 was examined for the inhibitory effect on leucine or alanine uptake in the human LAT1 stably expressing cell line and the human LAT2 stably expressing cell line in the same manner as in Example 2. FAMT was used as the positive control. The compound of Example 1 or FAMT was added at 100 μM. Cells not treated with either of these compounds were used as a negative control. On the assumption that the amino acid uptake activity in the negative control (control) was 100%, the percentage (%) of inhibition of amino acid uptake in the presence of FAMT or the compound of Example 1 was calculated. In addition, the cancer cell selectivity was calculated as the ratio of the amino acid uptake activity in the human LAT2 stably expressing cell line relative to that in the human LAT1 stably expressing cell line.
(§4) In another experiment, the cells were treated with the compound of Example 1 at eight different concentrations (0.1, 1, 3, 10, 30, 100, 300 and 1000 μM), and the concentration causing 50% inhibition of amino acid uptake was calculated as the IC50 value.
(§5) A human LAT1 stably expressing cell line and a human LAT2 stably expressing cell line, each of which was the same as described in Example 2, were seeded at 1.2×10^5 cells/well, and after 48 hours, the cells were washed 3 times with an uptake buffer (Na^2+-free Hank's balanced salt solution (HBSS), pH 7.4) prewarmed at 37° C. The test compounds, L-tyrosine or the positive control FAMT (fluoro-α-methyltyrosine) was added at 30 μM, and incubation was performed at 37° C. for 3 minutes. Cells not treated with any of these compounds were used as a negative control. After the incubation, 1 μM of [^14C]L-leucine or [^14C]alanine was added to the wells, [^14C]L-leucine or [^14C]alanine uptake was allowed to proceed for 1 minute, and the cells were washed 3 times with an ice-cold uptake buffer. […]

human LAT2 = molecular target: T2, human LAT2 (Homo sapiens, UniProt Q9UHI5); assay: Inhibition of amino acid uptake in human LAT2 stably expressing cell line; type: cell-based
T2 construct: expressed in transfected cells
T2 sequence (Q9UHI5 1-535): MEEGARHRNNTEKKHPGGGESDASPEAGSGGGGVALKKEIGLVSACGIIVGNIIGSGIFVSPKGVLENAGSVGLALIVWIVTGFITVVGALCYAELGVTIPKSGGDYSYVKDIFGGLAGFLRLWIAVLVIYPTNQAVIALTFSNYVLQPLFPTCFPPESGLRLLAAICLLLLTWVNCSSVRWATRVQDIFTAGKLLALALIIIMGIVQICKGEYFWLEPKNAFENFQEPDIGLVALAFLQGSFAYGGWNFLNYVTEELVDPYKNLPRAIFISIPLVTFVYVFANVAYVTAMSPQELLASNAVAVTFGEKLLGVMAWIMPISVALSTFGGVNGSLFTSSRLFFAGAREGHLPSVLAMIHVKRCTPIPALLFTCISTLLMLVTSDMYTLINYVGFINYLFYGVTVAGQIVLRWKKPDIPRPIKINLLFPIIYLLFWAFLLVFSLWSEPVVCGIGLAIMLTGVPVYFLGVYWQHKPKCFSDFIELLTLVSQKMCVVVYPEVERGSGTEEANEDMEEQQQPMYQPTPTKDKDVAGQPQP
T2 sequence (P08195 1-529 partner): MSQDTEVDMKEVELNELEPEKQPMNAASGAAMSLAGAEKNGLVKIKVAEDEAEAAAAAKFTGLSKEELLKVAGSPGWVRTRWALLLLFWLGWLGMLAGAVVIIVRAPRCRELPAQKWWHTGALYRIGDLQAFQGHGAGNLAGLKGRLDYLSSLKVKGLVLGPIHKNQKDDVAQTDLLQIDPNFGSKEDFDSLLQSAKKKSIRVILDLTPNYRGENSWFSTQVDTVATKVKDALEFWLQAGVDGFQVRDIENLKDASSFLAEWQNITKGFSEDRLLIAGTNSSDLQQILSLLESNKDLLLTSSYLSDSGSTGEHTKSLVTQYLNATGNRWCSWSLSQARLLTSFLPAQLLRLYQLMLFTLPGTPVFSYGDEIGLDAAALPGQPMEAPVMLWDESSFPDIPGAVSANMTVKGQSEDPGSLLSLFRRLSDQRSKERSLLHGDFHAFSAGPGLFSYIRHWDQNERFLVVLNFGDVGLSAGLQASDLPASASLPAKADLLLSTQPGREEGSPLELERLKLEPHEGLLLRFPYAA
From the text: as §1, §2, §3, §4, §5

[1] = eight concentrations 0.1-1000 μM

T1 sequence (Q01650 whole entry, one chain of several): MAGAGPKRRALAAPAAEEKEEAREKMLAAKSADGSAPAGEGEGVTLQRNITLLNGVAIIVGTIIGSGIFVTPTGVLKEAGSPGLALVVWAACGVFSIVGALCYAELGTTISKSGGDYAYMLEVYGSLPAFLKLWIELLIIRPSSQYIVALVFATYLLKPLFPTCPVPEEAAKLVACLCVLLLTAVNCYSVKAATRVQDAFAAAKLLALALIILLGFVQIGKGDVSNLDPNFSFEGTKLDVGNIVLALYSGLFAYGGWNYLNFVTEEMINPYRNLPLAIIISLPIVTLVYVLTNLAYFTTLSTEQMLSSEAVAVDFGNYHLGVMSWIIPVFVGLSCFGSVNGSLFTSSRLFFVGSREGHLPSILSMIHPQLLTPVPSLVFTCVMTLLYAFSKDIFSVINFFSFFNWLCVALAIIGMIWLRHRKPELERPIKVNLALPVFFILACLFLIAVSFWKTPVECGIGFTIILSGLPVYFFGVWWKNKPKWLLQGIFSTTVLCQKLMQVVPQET

inhibition at 100 µM (human LAT1; HEK293, compound at 100 μM, human LAT1 stably expressing HEK293 cell line, 1 μM [14C]L-leucine or [14C]alanine, 1 min uptake, read-out: Percentage of inhibition of LAT1-mediated amino acid uptake): 92.5%
IC50 (human LAT1; [1]): 9.2 µM
Selectivity for LAT1 over LAT2 (human LAT1; from IC50 values): ≥ 9 times
inhibition at 100 µM (human LAT2; HEK293, compound at 100 μM, human LAT2 stably expressing HEK293 cell line, 1 μM [14C]L-leucine or [14C]alanine, 1 min uptake, read-out: Percentage of inhibition of LAT2-mediated amino acid uptake): 55.1%
IC50 (human LAT2; [1]): 84 µM
Compound: NC(Cc1cc(OCCF)ccc1I)C(=O)O (centres unmarked) [Example 1, 2-amino-3-(5-(2-fluoroethoxy)-2-iodophenyl)propanoic acid]
